The source made the active and inactive calls. The rule behind the calls is not given here.
Experiments:
[1] = system: P21; assay: Inhibition of HPV-16 LCR transcriptional activity in human P21 cells at 30 uM after 24 hrs by luciferase reporter gene assay; assay type: cell-based; conditions: Alphapapillomavirus 9
[2] = (§1) Inhibition of HPV-16 LCR transcriptional activity in human P21 cells after 24 hrs by luciferase reporter gene assay; assay type: cell-based; conditions: Alphapapillomavirus 9, P21, 24 h
[3] = Drug uptake in human CaSki cells at 10 uM after 16 hrs by reverse-phase HPLC analysis; assay type: ADME, cell-based; conditions: ca-ski
[4] = Cytotoxicity against human P21 cells assessed as inhibition of cell viability after 24 hrs by CellTiter96 assay; assay type: cell-based
[5] = Selectivity index, ratio of CC50 for human P21 cells to IC50 for HPV-16 LCR transcriptional activity in human P21 cells; assay type: functional
[6] = Cytotoxicity against human CaSki cells assessed as inhibition of cell proliferation at 10 uM after 24 hrs by CellTiter96 assay; assay type: cell-based; conditions: ca-ski
[7] = Drug uptake in human CaSki cells at 10 uM after 1 hr by reverse-phase HPLC analysis; assay type: ADME, cell-based; conditions: ca-ski
[8] = system: P21; assay: Inhibition of HPV-16 LCR transcriptional activity in human P21 cells at 100 uM after 24 hrs by luciferase reporter gene assay; assay type: cell-based; conditions: Alphapapillomavirus 9
[9] = system: Ca-Ski; assay: Inhibition of LCR-mediated E6 mRNA expression in HPV-16-positive human CaSki cells at 10 uM after 24 hrs by RT-PCR analysis; assay type: cell-based; conditions: Alphapapillomavirus 9
[10] = system: Ca-Ski; assay: Inhibition of LCR-mediated E7 mRNA expression in HPV-16-positive human CaSki cells at 10 uM after 24 hrs by RT-PCR analysis; assay type: cell-based; conditions: Alphapapillomavirus 9
[11] = system: P21; assay: as §1; assay type: cell-based; conditions: Alphapapillomavirus 9
[12] = system: Human immunodeficiency virus 1; assay: Antiviral activity against HIV-1 3B infected in human MT4 cells assessed as protection against virus-induced cytopathogenicity; assay type: functional, organism-based
[13] = system: Rotavirus; assay: Antiviral activity against HRV infected in […] cells assessed as protection against virus-induced cytopathogenicity; assay type: functional, organism-based
[14] = system: Human orthopneumovirus; assay: Antiviral activity against RSV infected in human Hep2 cells assessed as protection against virus-induced cytopathogenicity; assay type: functional, organism-based; conditions: human respiratory syncytial virus; HEp-2
[15] = system: Human alphaherpesvirus 2; assay: Antiviral activity against HSV2 infected in african green monkey Vero cells assessed as protection against virus-induced cytopathogenicity; assay type: functional, organism-based
[16] = system: Vesicular stomatitis virus; assay: Antiviral activity against VSV infected in african green monkey Vero cells assessed as protection against virus-induced cytopathogenicity; assay type: functional, organism-based

Row | SMILES | inhibition [1] | IC50 [2] | Drug uptake [3] | CC50 at 24 h [4] | Ratio CC50/IC50 [5] | Activity [6] | Drug uptake [7] | inhibition [8] | inhibition [9] | inhibition [10] | inhibition [11] | Activity [12] | Activity [13] | Activity [14] | Activity [15] | Activity [16]
1 | O=C(O)c1cn(Cc2cccc(Cl)c2F)c2nc(N3CCN(c4ccc5ccccc5n4)CC3)ccc2c1=O | 99.3% | 2.86 µM | 38% | 17.6 µM | 6.1 | Non-toxic | 20% | 100% |  |  |  |  |  |  |  | 
2 | CCOC(=O)c1cn(CCc2ccc(Cl)cc2)c2nc(N3CCN(c4nc5ccccc5s4)CC3)ccc2c1=O | 49.6% |  |  |  |  |  |  | 50.4% |  |  |  |  |  |  |  | 
3 | O=C(O)c1cn(Cc2cccc(Cl)c2F)c2nc(N3CCN(c4nc5ccccc5s4)CC3)ccc2c1=O | 38.3% |  | 35% |  |  | Non-toxic | 20% | 56% |  |  |  |  |  |  |  | 
4 | O=C(O)c1cn(Cc2ccccc2)c2nc(N3CCN(c4nc5ccccc5s4)CC3)ccc2c1=O | 100% | 4.55 µM |  | 69.6 µM | 15.2 | Non-toxic |  | 100% |  |  |  |  |  |  |  | 
5 | CCOC(=O)c1cn(Cc2ccccc2)c2nc(N3CCN(c4nc5ccccc5s4)CC3)ccc2c1=O | 98.2% | 0.23 µM |  | 61.7 µM | 268 | Non-toxic |  | 98.1% |  |  |  |  |  |  |  | 
6 | CCOC(=O)c1cn(Cc2nc3ccccc3[nH]2)c2nc(N3CCN(c4nc5ccccc5s4)CC3)ccc2c1=O | 38.3% |  |  |  |  |  |  | 45.5% |  |  |  |  |  |  |  | 
7 | CCOC(=O)c1cn(Cc2ccccn2)c2nc(N3CCN(c4nc5ccccc5s4)CC3)ccc2c1=O | 63.1% | 5.3 µM |  | 34.6 µM | 6.5 |  |  | 73.4% |  |  |  |  |  |  |  | 
8 | CCOC(=O)c1cn(Cc2ccc(Cl)cc2)c2nc(N3CCN(c4nc5ccccc5s4)CC3)ccc2c1=O | 90% | 2.37 µM |  | > 100 µM | >42.1 | Non-toxic |  | 90% |  |  |  |  |  |  |  | 
9 | CCOC(=O)c1cn(Cc2cccc(Cl)c2F)c2nc(N3CCN(c4ccc5ccccc5n4)CC3)ccc2c1=O | 92.3% | 0.21 µM | 40% | 59.3 µM | 282 | Non-toxic | Not Active | 93.7% | 61.5% | 57.4% |  |  |  |  |  | 
10 | CCOC(=O)c1cn(Cc2cccc(Cl)c2F)c2nc(N3CCN(c4ccccn4)CC3)ccc2c1=O | 89.2% | 1.12 µM |  | > 100 µM | >89.2 | Non-toxic |  | 93.1% |  |  | Dose-dependent effect |  |  |  |  | 
11 | CCOC(=O)c1cn(Cc2cccc(Cl)c2F)c2nc(N3CCN(c4nccs4)CC3)ccc2c1=O | 98% | 1.21 µM | 70% | 25.3 µM | 20.9 | Non-toxic | Not Active | 99.7% | 71.7% | 72.7% |  |  |  |  |  | 
12 | O=C(O)c1cn(Cc2cccc(Cl)c2F)c2nc(N3CCN(c4nccs4)CC3)ccc2c1=O | 7.39% |  | 63% |  |  | Non-toxic | 20% | 2.1% |  |  |  |  |  |  |  | 
13 | CCOC(=O)c1cn(Cc2cccc(Cl)c2)c2nc(N3CCN(c4nc5ccccc5s4)CC3)ccc2c1=O | 96% | 2.62 µM |  | > 100 µM | >38.1 | Non-toxic |  | 96% |  |  |  |  |  |  |  | 
14 | CCOC(=O)c1cn(Cc2ccc(C(F)(F)F)cc2)c2nc(N3CCN(c4nc5ccccc5s4)CC3)ccc2c1=O | 67.5% | 10.9 µM |  | 78.2 µM | 7.16 |  |  | 89.3% |  |  |  |  |  |  |  | 
15 | O=C(O)c1cn(CCc2ccccn2)c2nc(N3CCN(c4nc5ccccc5s4)CC3)ccc2c1=O | 0% |  |  |  |  |  |  | 0% |  |  |  |  |  |  |  | 
16 | O=C(O)c1cn(Cc2ccccn2)c2nc(N3CCN(c4nc5ccccc5s4)CC3)ccc2c1=O | 24% |  |  |  |  |  |  | 61% |  |  |  |  |  |  |  | 
17 | CCOC(=O)c1cn(Cc2cccc(Cl)c2F)c2nc(N3CCN(c4nc5ccccc5s4)CC3)ccc2c1=O | 82.8% | 0.26 µM | 15% | > 100 µM | >385 | Non-toxic | Not Active | 94.9% |  |  |  | inactive | inactive | Active | Active | Active
18 | CCOC(=O)c1cn(Cc2ccc3[nH]ccc3c2)c2nc(N3CCN(c4nc5ccccc5s4)CC3)ccc2c1=O | 93.6% | 0.13 µM |  | > 100 µM | >769 | Non-toxic |  | 90.2% |  |  |  |  |  |  |  | 
19 | CCOC(=O)c1cn(Cc2cccc(Cl)c2F)c2nc(N3CCN(c4nc5ccccc5o4)CC3)ccc2c1=O | 88.1% | 0.39 µM |  | > 100 µM | >256 |  |  | 83.9% |  |  |  |  |  |  |  | 
20 | CCOC(=O)c1cn(CCc2ccccn2)c2nc(N3CCN(c4nc5ccccc5s4)CC3)ccc2c1=O | 87% | 1.05 µM |  | 17.1 µM | 16.2 |  |  | 100% |  |  |  |  |  |  |  | 
21 | O=C(O)c1cn(Cc2cccc(Cl)c2F)c2nc(N3CCN(c4ccccn4)CC3)ccc2c1=O | 30.5% |  |  |  |  | Non-toxic |  | 25.8% |  |  |  |  |  |  |  | 
22 | CCOC(=O)c1cn(Cc2ccccc2F)c2nc(N3CCN(c4nc5ccccc5s4)CC3)ccc2c1=O | 88.6% | 4.18 µM |  | > 100 µM | >23.9 |  |  | 75.6% |  |  |  |  |  |  |  | 

— ChEMBL document CHEMBL3297723, “Ethyl 1,8-naphthyridone-3-carboxylates downregulate human papillomavirus-16 E6 and E7 oncogene expression” (J Med Chem, 2014)
